Reference: PubChem BioAssay (NCI)
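Method: 48-hour compound exposure of cells in 96-well plates, five concentrations, linear interpolation of endpoints. GI50 marks 50% less growth. At the TGI there is no net growth.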

Experiments:
Test in all cases: DTP human tumour cell line panel, 48 h
ACHN renal = system: ACHN renal
BT-549 breast = system: BT-549 breast
CCRF-CEM leukemia = system: CCRF-CEM leukemia
COLO 205 colon = system: COLO 205 colon
DU-145 prostate = system: DU-145 prostate
HCC-2998 colon = system: HCC-2998 colon
HCT-116 colon = system: HCT-116 colon
HCT-15 colon = system: HCT-15 colon
HL-60(TB) leukemia = system: HL-60(TB) leukemia
HT29 colon = system: HT29 colon
IGROV1 ovarian = system: IGROV1 ovarian
K-562 leukemia = system: K-562 leukemia
KM12 colon = system: KM12 colon
M14 melanoma = system: M14 melanoma
MALME-3M melanoma = system: MALME-3M melanoma
MCF7 breast = system: MCF7 breast
MDA-MB-231 breast = system: MDA-MB-231 breast
MDA-MB-435 = system: MDA-MB-435
MDA-MB-468 breast = system: MDA-MB-468 breast
MOLT-4 leukemia = system: MOLT-4 leukemia
OVCAR-4 ovarian = system: OVCAR-4 ovarian
OVCAR-5 ovarian = system: OVCAR-5 ovarian
OVCAR-8 ovarian = system: OVCAR-8 ovarian
SF-539 CNS = system: SF-539 CNS
SK-MEL-2 melanoma = system: SK-MEL-2 melanoma
SK-MEL-28 melanoma = system: SK-MEL-28 melanoma
SK-MEL-5 melanoma = system: SK-MEL-5 melanoma
SN12C renal = system: SN12C renal
SNB-19 CNS = system: SNB-19 CNS
SR leukemia = system: SR leukemia
T-47D breast = system: T-47D breast
TK-10 renal = system: TK-10 renal
UACC-257 melanoma = system: UACC-257 melanoma
UACC-62 melanoma = system: UACC-62 melanoma
UO-31 renal = system: UO-31 renal

## O=C(NCCCCCCCCCC[P+](c1ccccc1)(c1ccccc1)c1ccccc1)c1ccc(-n2nc(-c3ccccc3O)nc2-c2ccccc2O)cc1
ACHN renal
  GI50: 0.379 µM
  TGI: 1.36 µM
BT-549 breast
  GI50: 0.104 µM
  TGI: 0.673 µM
CCRF-CEM leukemia
  GI50: 0.0396 µM
  TGI: > 100 µM
COLO 205 colon
  GI50: 0.0508 µM
  TGI: 0.268 µM
DU-145 prostate
  GI50: 0.0464 µM
  TGI: 1.63 µM
HCC-2998 colon
  GI50: 0.0574 µM
  TGI: 1.43 µM
HCT-116 colon
  GI50: 0.0377 µM
  TGI: 1.08 µM
HCT-15 colon
  GI50: 0.566 µM
  TGI: 2.48 µM
HL-60(TB) leukemia
  GI50: 0.0565 µM
  TGI: 0.461 µM
HT29 colon
  GI50: 0.0401 µM
  TGI: 0.789 µM
IGROV1 ovarian
  GI50: 0.0483 µM
  TGI: 1.18 µM
K-562 leukemia
  GI50: 0.0449 µM
  TGI: 3.21 µM
KM12 colon
  GI50: 0.203 µM
  TGI: 1.34 µM
M14 melanoma
  GI50: 0.0825 µM
  TGI: 1.32 µM
MALME-3M melanoma
  GI50: 0.0307 µM
  TGI: 0.19 µM
MCF7 breast
  GI50: 0.0417 µM
  TGI: 0.953 µM
MDA-MB-231 breast
  GI50: 0.0993 µM
  TGI: 0.728 µM
MDA-MB-435
  GI50: 0.0409 µM
  TGI: 1.11 µM
MDA-MB-468 breast
  GI50: 0.0255 µM
  TGI: 0.121 µM
MOLT-4 leukemia
  GI50: 0.0585 µM
  TGI: 1.43 µM
OVCAR-4 ovarian
  GI50: 0.18 µM
  TGI: 2.21 µM
OVCAR-5 ovarian
  GI50: 0.192 µM
  TGI: 0.926 µM
OVCAR-8 ovarian
  GI50: 0.074 µM
  TGI: 1.22 µM
SF-539 CNS
  GI50: 0.172 µM
  TGI: 0.716 µM
SK-MEL-2 melanoma
  GI50: 0.133 µM
  TGI: 0.53 µM
SK-MEL-28 melanoma
  GI50: 0.115 µM
  TGI: 1.59 µM
SK-MEL-5 melanoma
  GI50: 0.165 µM
  TGI: 0.447 µM
SN12C renal
  GI50: 0.0407 µM
  TGI: 0.721 µM
SNB-19 CNS
  GI50: 0.0505 µM
  TGI: 1.17 µM
SR leukemia
  GI50: < 0.0191 µM
  TGI: > 40.5 µM
T-47D breast
  GI50: 0.0352 µM
  TGI: 0.522 µM
TK-10 renal
  GI50: 0.33 µM
  TGI: 1.5 µM
UACC-257 melanoma
  GI50: 0.0904 µM
  TGI: 0.792 µM
UACC-62 melanoma
  GI50: 0.084 µM
  TGI: 0.568 µM
UO-31 renal
  GI50: 0.428 µM
  TGI: 1.93 µM
